Assay [1] has as its system synaptosomes from the striatal area of rat brain. The experiment in a line: [3H]-Dopamine release from striatal synaptosomes (continuous perfusion). Format: cell-based, Sprague-Dawley rats. Conditions: for Emax: Rattus norvegicus; for EC50: rat striatal synaptosomes. The procedure: Dopamine release was measured by preparing synaptosomes from the striatal area of rat brain obtained from Sprague-Dawley rats generally according to the procedures set forth by Nagy et al., J. Neurochem., Vol. 43, pp. 1114-1123 (1984). Striata from 4 rats were homogenized in 2 ml of 0.32M sucrose buffered with 5 mM HEPES (pH 7.5), using a glass-Teflon tissue grinder. The homogenate was diluted to 5 ml with additional homogenization solution and centrifuged at 1,000 x g for 10 min. This procedure was repeated on the new pellet and the resulting supernatant was centrifuged at 12,000 x g for 20 min. A 3 layer discontinuous Percoll gradient consisting of 16 percent, 10 percent and 7.5 percent Percoll in HEPES-buffered sucrose was made with the final pellet dispersed in the top layer. After centrifugation at 15,000 x g for 20 min., the synaptosomes were recovered above the 16 percent layer with a Pasteur pipette, diluted with 8 ml of perfusion buffer (128 mM NaCl, 2.4 mM KCl, 3.2 Mm CaCl2, 1.2 mM KH2PO4, 1.2 mM MgSO4, 25 mM HEPES pH 7.4, 10 mM dextrose, 1 mM ascorbate, 0.01 mM pargyline), and centrifuged at 15,000 x g for 20 min. The new pellet was collected and re-suspended in perfusion buffer. The synaptosome suspension was incubated for 10 min. at 37°C. [^3H]-Dopamine (Amersham, 40-60 Ci/mmol) was added to the suspension to give a final concentration of 0.1 uM, and the suspension was incubated for another 5 min. Using this method, 30 to 90 percent of the dopamine was taken up into the synaptosomes, as determined by scintillation counting following filtration through glass fiber filters soaked with 0.5 percent polyethyleneimine. A continuous perfusion system was used to monitor release following exposure to each ligand. Synaptosomes were loaded onto glass fiber filters (Gelman type A/E). Perfusion buffer was dripped onto the filters (0.2-0.3 ml/min.) and pulled through the filters with a peristaltic pump. Synaptosomes were washed with perfusion buffer for a minimum of 20 min. before addition of the ligand. After the addition of 0.2 ml of a solution containing various concentrations of ligand, the perfusate was collected into scintillation vials at 1 min. intervals and the dopamine released was quantified by scintillation counting. Peaks of radioactivity released above background were summed and the average basal release during that time was subtracted from the total.

Assay [2] addresses T1, muscle-like nicotinic receptors (Homo sapiens, UniProt P02708+P07510+Q07001).
T1 construct: Intact cells on dishes were used for functional studies; endogenous in cells; host or cells: TE671/RD human embryonal rhabdomyosarcoma cells
Put plainly: cell-based. Particulars: for Emax: TE671/RD, read-out: Muscle Effect. Format: cell-based.

For assay [3], the target named is T2, ganglionic-type neuronal nicotinic receptors (Rattus norvegicus, UniProt P04757+P12392).
T2 construct: Intact cells on dishes were used for functional studies; endogenous in cells; host or cells: PC12 rat pheochromocytoma cells
T2 sequence (P04757 26-499): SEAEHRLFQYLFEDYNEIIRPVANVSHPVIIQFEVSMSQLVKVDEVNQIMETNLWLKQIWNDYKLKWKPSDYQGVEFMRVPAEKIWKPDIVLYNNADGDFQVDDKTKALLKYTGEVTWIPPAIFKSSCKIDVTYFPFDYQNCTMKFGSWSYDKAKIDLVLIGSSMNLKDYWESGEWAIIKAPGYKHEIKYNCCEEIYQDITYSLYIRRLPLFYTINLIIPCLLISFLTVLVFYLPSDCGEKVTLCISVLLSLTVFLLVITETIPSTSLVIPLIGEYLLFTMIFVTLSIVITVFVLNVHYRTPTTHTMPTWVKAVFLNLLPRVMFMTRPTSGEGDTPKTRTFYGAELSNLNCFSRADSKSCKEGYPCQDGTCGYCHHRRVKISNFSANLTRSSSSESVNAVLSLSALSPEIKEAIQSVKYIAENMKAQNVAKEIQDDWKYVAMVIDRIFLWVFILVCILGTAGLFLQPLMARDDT
T2 sequence (P12392 21-495): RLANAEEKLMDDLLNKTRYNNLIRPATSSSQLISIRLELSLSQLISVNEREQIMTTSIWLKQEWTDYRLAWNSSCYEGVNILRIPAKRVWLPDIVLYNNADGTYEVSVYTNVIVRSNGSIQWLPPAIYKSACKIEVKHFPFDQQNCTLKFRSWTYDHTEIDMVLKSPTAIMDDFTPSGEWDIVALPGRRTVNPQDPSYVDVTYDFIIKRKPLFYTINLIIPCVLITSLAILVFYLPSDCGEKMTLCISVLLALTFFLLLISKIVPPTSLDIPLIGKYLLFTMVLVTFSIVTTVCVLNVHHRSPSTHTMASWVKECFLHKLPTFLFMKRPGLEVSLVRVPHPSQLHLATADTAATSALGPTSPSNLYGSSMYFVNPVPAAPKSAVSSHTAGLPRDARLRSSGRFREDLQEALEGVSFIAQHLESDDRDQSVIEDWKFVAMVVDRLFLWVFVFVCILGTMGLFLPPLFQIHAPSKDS
The experiment in a line: cell-based. Conditions: for Emax: PC-12, read-out: Ganglion Effect.

For assay [4], the target named is T3, high affinity CNS nicotinic receptors (Rattus norvegicus, UniProt P09483+P12390).
T3 construct: Brain membrane preparations were obtained from brain tissue of either males or females; from tissue; host or cells: rat (Sprague-Dawley) brain without cerebellum, membrane preparation
T3 sequence (P09483 31-630): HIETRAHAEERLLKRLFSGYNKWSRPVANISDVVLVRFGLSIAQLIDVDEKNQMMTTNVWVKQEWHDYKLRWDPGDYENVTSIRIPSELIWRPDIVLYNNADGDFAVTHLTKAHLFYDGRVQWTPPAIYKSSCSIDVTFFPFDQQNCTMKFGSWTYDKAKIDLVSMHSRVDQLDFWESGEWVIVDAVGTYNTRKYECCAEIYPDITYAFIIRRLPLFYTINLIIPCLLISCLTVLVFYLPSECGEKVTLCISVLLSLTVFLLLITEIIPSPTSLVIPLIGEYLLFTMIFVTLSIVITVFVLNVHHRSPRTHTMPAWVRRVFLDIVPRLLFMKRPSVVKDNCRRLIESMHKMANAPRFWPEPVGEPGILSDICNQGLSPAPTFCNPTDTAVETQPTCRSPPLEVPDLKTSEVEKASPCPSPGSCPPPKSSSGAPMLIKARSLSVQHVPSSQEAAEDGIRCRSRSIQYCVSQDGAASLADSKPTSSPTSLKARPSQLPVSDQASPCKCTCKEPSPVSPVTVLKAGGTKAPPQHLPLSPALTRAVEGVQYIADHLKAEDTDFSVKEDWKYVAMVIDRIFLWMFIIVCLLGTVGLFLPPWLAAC
T3 sequence (P12390 25-500): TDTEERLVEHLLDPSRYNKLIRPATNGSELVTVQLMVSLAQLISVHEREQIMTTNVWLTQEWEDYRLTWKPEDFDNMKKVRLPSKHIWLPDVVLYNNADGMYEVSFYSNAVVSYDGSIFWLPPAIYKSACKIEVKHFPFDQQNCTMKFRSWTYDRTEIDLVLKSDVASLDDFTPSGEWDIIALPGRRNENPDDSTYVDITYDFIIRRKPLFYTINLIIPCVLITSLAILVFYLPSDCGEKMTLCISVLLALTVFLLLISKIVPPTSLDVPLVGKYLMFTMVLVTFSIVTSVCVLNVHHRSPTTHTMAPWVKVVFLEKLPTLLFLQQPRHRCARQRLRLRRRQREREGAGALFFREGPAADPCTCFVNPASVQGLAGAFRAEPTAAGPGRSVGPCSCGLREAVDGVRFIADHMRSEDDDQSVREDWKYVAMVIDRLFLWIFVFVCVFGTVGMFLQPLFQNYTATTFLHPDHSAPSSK
Put plainly: biochemical. It counts as binding, Rats (Sprague-Dawley).

Where two headings read alike, the source gives them in different places.

T1 sequence (P02708 21-457): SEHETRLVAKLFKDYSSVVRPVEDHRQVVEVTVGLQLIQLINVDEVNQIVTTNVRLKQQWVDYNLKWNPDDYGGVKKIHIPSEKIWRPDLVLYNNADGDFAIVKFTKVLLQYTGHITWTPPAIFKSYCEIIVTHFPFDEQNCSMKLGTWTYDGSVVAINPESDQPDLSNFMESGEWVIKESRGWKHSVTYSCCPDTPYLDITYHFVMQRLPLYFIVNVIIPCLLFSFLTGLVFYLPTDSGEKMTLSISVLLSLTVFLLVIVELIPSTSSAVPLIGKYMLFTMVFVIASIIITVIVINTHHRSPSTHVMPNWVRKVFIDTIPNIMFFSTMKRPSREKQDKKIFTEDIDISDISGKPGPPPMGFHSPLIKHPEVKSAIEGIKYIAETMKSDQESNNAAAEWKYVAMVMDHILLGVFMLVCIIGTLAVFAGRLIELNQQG
T1 sequence (P07510 23-517): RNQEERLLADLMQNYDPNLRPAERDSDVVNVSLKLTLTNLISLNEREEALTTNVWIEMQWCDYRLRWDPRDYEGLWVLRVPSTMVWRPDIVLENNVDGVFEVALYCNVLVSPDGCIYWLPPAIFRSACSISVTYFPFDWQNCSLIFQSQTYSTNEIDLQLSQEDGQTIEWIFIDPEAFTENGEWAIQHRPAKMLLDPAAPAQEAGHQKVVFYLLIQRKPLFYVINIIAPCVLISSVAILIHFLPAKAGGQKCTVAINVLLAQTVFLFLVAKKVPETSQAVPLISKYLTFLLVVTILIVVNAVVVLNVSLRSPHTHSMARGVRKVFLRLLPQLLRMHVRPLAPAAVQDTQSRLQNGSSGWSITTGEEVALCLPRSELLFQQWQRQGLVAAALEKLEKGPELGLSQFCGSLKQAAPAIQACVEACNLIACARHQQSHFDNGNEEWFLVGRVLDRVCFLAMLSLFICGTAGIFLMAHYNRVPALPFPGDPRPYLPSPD
T1 sequence (P11230 24-501, further chain): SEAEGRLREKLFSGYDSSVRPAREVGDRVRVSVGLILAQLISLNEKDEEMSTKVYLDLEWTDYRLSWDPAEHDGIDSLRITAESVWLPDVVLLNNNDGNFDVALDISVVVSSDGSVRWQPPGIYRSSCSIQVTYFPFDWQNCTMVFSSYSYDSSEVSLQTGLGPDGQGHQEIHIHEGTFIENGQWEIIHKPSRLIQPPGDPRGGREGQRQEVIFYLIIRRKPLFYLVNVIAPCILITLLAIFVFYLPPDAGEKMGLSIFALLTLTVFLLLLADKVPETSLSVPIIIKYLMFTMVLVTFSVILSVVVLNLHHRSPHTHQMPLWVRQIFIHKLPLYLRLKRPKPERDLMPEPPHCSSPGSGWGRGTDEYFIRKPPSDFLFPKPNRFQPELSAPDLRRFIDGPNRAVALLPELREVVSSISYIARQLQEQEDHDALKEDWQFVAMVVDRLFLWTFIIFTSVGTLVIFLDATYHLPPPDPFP
T1 sequence (Q07001 22-517): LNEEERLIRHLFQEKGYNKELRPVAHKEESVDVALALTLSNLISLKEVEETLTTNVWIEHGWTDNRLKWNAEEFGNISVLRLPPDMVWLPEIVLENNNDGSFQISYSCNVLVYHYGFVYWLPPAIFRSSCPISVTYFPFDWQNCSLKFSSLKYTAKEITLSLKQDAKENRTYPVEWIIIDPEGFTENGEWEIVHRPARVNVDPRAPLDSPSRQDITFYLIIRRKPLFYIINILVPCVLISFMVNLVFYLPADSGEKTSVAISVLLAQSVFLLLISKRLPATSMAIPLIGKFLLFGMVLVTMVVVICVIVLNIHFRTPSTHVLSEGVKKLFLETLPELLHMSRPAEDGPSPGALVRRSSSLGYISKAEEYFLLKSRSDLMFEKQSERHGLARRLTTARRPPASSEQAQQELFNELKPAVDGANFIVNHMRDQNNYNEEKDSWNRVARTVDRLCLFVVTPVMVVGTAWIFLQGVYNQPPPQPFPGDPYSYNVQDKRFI

As a reminder, the EC50 is the midpoint of the concentration-response curve. Low values mean an effect from little substance, high ones a need for much substance. `NCC/C=C/c1cncnc1` [Sample No. 1, (E)-4-(5-pyrimidinyl)-3-butene-1-amine monofumarate]: in assay [1], the Emax was 113% and the midpoint of the response, the EC50, lay at 4.36 µM.

`CNCC/C=C/c1cncnc1` [Sample No. 2, (E)-N-methyl-4-(5-pyrimidinyl)-3-butene-1-amine]: the Emax in assay [2] turned out to be 4%; in assay [3], 1%; in assay [1], 77%. In assay [1], it took 5.8 µM to reach a half-maximal effect (EC50).

For `COc1cncc(/C=C/CCN)c1` [Sample No. 3, (E)-4-[3-(5-methoxypyridin)yl] -3-butene-1-amine monofumarate], the Emax in assay [2] was 0%; in assay [3], 0%; in assay [1] it was 95%. The EC50 in assay [1] amounted to 4 µM.

The Ki is a measure of affinity in units of concentration, obtained from inhibition or displacement. Low readings indicate higher affinity, high ones lower affinity. As to `CNCCC#Cc1cccnc1` [Sample No. 4, N-Methyl-4-(3-pyridinyl)-3-butyne-1-amine], the “Muscle Effect” value in assay [2] (te671/rd cells) amounted to 7 % nicotine. Also, the Ki in assay [4] was 0.058 µM. Besides, the “Ganglion Effect” value in assay [3] (pc12 cells) is reported as 59 % nicotine. In assay [1], this molecule registered an Emax of 87% and an EC50 of 8.35 µM.

`CNCC/C=C\c1cccnc1` [Sample No. 5, (Z) metanicotine]: in assay [1], the “Dopamine Release Emax” value is given as 88 %nicotine.

As for `CNCC/C=C/c1ccc(C)nc1` [Sample No. 6, (E)-N-methyl-4-[3-(6-methylpyrindin)yl]-3-butene-1-amine], the Emax in assay [2] is 2%; in assay [3], 4%; in assay [1], 60%. Moreover, the midpoint of the response in assay [1], the EC50, lay at 0.219 µM.

Take `CNCCCCc1cccnc1` [Sample No. 7, N-methyl-(3-pyridinyl)-butane-1-amine]: in assay [4], the Ki was 0.91 µM. The Emax in assay [1] came out at 72%.

As for `CNCC/C=C/c1cccnc1` [Sample No. 8, (E)-metanicotine, reference compound], the “Muscle Effect” value in assay [2] is reported as 15 % nicotine. For the same molecule, in assay [1], the “Dopamine Release Emax” value is listed as 80 %nicotine.

Turning to `CN1CCC[C@H]1c1cccnc1` [Sample No. C-1, (S)-(-)-nicotine, reference compound], in assay [1], the Emax was determined as 100% and a half-maximal response (EC50) required 0.115 µM.

(Values after patent EP0801527B1 (priority 1995, dated 1996).)
